Laboratory results from patent US9180111B2, “Reduction in complement activation and inflammation during tissue injury by carotenoids, carotenoid analogs, or derivatives thereof” (Cardax Pharma, Inc., priority 2005, dated 2015).

How the values were obtained:
mongrel canines = details: 50 mg/kg i.v., four days; cited from earlier work
superoxide anion = assay: Direct superoxide anion scavenging by EPR spectroscopy (DEPMPO spin-trap) in PMA-stimulated isolated human neutrophils; type: cell-based; details: aqueous phase
Method: Human polymorphonuclear leukocytes (PMNs) were isolated from freshly sampled venous blood of a single volunteer by Percoll density gradient centrifugation as described previously. Briefly, each 10 mL of whole blood was mixed with 0.8 mL of 0.1 M EDTA and 25 mL of saline. The diluted blood was then layered over 9 mL of Percoll at a specific density of 1.080 g/mL. After centrifugation at 400×g for 20 min at 20° C., the plasma, mononuclear cell, and Percoll layers were removed. Erythrocytes were subsequently lysed by addition of 18 mL of ice-cold water for 30 s, followed by 2 mL of 10×PIPES buffer (25 mM PIPES, 110 mM NaCl, and 5 mM KCl, titrated to pH 7.4 with NaOH). Cells were then pelleted at 4° C., the supernatant was decanted, and the procedure was repeated. […] Afterward, PMNs were counted by light microscopy on a hemocytometer. […] The microwave frequency was measured with a Model 575 microwave counter (EIP Microwave, Inc., San Jose, Calif.). […]
Instrument settings used in the spin-trapping experiments were as follows: modulation amplitude, 0.32 G; time constant, 0.16 s; scan time, 60 s; modulation frequency, 100 kHz; microwave power, 20 milliwatts; and microwave frequency, 9.76 GHz. The samples were placed in a quartz EPR flat cell, and spectra were recorded. The component signals in the spectra were identified and quantified as reported previously.

CC1=C(/C=C/C(C)=C/C=C/C(C)=C/C=C/C=C(C)/C=C/C=C(C)/C=C/C2=C(C)C(=O)C(OC(=O)CCC(=O)O)CC2(C)C)C(C)(C)CC(OC(=O)CCC(=O)O)C1=O (centres unmarked) [DDA, disodium disuccinate astaxanthin]
mean myocardial salvage (mongrel canines): 68%
direct aqueous superoxide anion scavenging (superoxide anion): potent direct scavengers of superoxide anion
